Read-outs that look alike come from different tables or passages of the source.
Assays:
[1] = target: T1, gonococcal LOS sialyltransferase (Lst) (Neisseria gonorrhoeae, UniProt P72074); conditions: from U.S. patent application Ser. No. 14/627,396; cited from earlier work
T1 construct: CMP-KDN served as a substrate for gonococcal Lst in the context of live bacteria; endogenous in cells; host or cells: N. gonorrhoeae F62 ΔlgtD (live bacteria)

[2] = test system: purified human FH; conditions: from U.S. Pat. No. 9,765,106 / Ser. No. 14/627,396; cited from earlier work
[3] = test system: N. gonorrhoeae F62 ΔlgtD; format: cell-based, Neisseria gonorrhoeae
Protocol: Generally, bacteria (F62 ΔlgtD) grown overnight on chocolate agar plates were suspended in gonococcal liquid media supplemented with IsoVitaleX [29] that contained specified concentrations of the CMP-nonulosonate. Bacteria were then incubated at 37° C. for the period specified in each experiment.
Serum bactericidal assays were performed as follows, similar to methods outlined in [32,33] and in U.S. Pat. No. 9,765,106. Bacteria were harvested from an overnight culture on chocolate agar plates and ˜10^5 CFU of Ng were grown in liquid media containing the concentrations of CMP-NuIO as specified for each experiment. Bacteria were diluted in Morse A and ˜2000 CFU of Ng F62 ΔlgtD were incubated with NHS (concentration specified for each experiment). The final reaction volumes were maintained at 150 μL. Aliquots of 25 μL of reaction mixtures were plated onto chocolate agar in duplicate at the beginning of the assay (t0) and again after incubation at 37° C. for 30 minutes (t30). Survival was calculated as the number of viable colonies at t30 relative to t0.
Addition of a terminal Neu5Ac residue to the LNnT LOS of N. gonorrhoeae that occurs in vivo or following the addition of CMP-Neu5Ac to growth media results in resistance to complement-dependent killing. We next determined the effects of LNnT incorporation of KDN on the ability of N. gonorrhoeae F62 ΔlgtD to resist complement-dependent killing by normal human sera at concentrations of 3.3% or 10%. Bacteria were grown either in media alone, or media supplemented with 20 μg/mL of CMP-Neu5Ac or CMP-KDN. In addition, CMP-NulO competition experiments were also performed with CMP-Neu5Ac, CMP-Leg5Ac7Ac and CMP-KDN at CMP-NulO concentrations of either 20 μg/mL or 2 μg/mL as indicated, where the second CMP-NulO was added 15 minutes after the first (Table 1 below). To note, these CMP-NulO competition experiments are a method to examine the ability of select CMP-NulOs to counter the enhanced serum resistance due to CMP-Neu5Ac addition, providing information on their therapeutic potential (as any potential therapeutic will be required to compete with CMP-Neu5Ac in vivo).

[4] = test system: N. gonorrhoeae F62 ΔlgtD; conditions: from U.S. patent application Ser. No. 14/627,396; cited from earlier work
[5] = test system: N. gonorrhoeae H041; test: BALB/c mouse vaginal colonization model; format: in vivo; conditions: 10 μg intravaginally daily; Premarin treated BALB/c mice
Protocol: FIG. 2: Female BALB/c mice 5-6 weeks of age (Jackson Laboratories) in the diestrus phase of the estrous cycle were started on treatment (that day) with 0.5 mg of Premarin (Pfizer) given subcutaneously on each of three days; −2, 0 and +2 days (before, the day of and after inoculation) to prolong the estrus phase of the cycle and promote susceptibility to N. gonorrhoeae infection. Antibiotics (vancomycin, colistin, neomycin, trimethoprim and streptomycin) that were ineffective against N. gonorrhoeae were also used to reduce competitive microflora. Mice (n=40) were then infected with 10^6 CFU of strain H041. Three groups of mice (n=10/group) were treated with 10 μg intravaginally daily (first dose was administered 30 minutes before the introduction of bacteria) with one of the following CMP-NulOs in normal saline: CMP-Leg5Ac7Ac, CMP-Neu5Ac9Az or CMP-KDN. A fourth group (n=10) was given saline (vehicle control). Vaginal swabs were obtained daily from each animal, serially diluted and plated on chocolate agar containing vancomycin, colistin, neomycin, trimethoprim and streptomycin (VCNTS) to quantify bacterial loads. A. Median time to clearance was estimated using Kaplan-Meier survival curves; the times to clearance were compared between groups using a log-rank test. P<0.0001 for the control versus each of the treatment groups. Time to clearance between each of the treatment groups was similar (P>0.05). B. The mean area under the curve (log10 CFU vs. time) was computed for each mouse to estimate the bacterial burden over time (cumulative infection); the means under the curves were compared between groups using the Kruskal-Wallis nonparametric rank sum test because distributions were skewed or kurtotic. Groups were compared using Dunn's multiple comparison test. ****, P<0.0001; **, P<0.01; *, P<0.05. The differences among the groups that received CMP-NulOs were not significant.
The mouse model experiments and statistical analysis were conducted as described in the art and in U.S. Pat. No. 9,765,106. […]

[6] = target: T1, gonococcal LOS sialyltransferase (Lst); test: mAb 3F11 binding by flow cytometry (incorporation of NulO on LNnT LOS by Lst); format: cell-based, N. gonorrhoeae F62 ΔlgtD; conditions: F62 ΔlgtD grown in media with 20 μg/mL CMP-NulO
Protocol: FIG. 1: CMP-KDN serves as a substrate for gonococcal LOS and incorporation of KDN on gonococcal lacto-N-neotetraose LOS enhances factor H (FH) binding. A. Incorporation of KDN by gonococci. Gonococcal strain F62 ΔlgtD (expresses lacto-N-neotetraose (LNnT) from Hepl) was grown in media containing CMP-KDN (20 μg/mL) and binding of mAb 3F11 was measured by flow cytometry. mAb 3F11 binds only to […] LNnT; substitution of the terminal Gal of LNnT, for example with a NulO, will decrease mAb 3F11 binding. Approximately 5×10^7 bacteria were incubated with mAb 3F11 tissue culture supernatants for 15 minutes at 37° C. Binding of mAb 3F11 was disclosed with anti-mouse IgM FITC (Sigma; dilution of 1:100). Bacteria grown in CMP-Neu5Ac or in media alone were used as positive and negative controls for sialylation, respectively. A representative histogram is shown in the upper panel. […] B. Factor H (FH) binding to gonococci grown in CMP-KDN. Approximately 5×10^7 bacteria grown in media alone (no sialic acid), media plus CMP-Neu5Ac (20 μg/mL; positive control for FH binding) or in media containing CMP-KDN (20 μg/mL) were incubated with purified human FH (20 μg/mL) in HBSS** for 15 minutes at 37° C. and bound FH was detected with affinity isolated goat anti-human FH followed by anti-goat IgG FITC (Sigma; 1:100 dilution). A representative histogram is shown in the upper panel.
FIG. 3: CMP-KDN7N3 serves as a substrate for gonococcal Lst resulting in incorporation of KDN7N3 on gonococcal lacto-N-neotetraose (LNnT) LOS—Incorporation of KDN7N3 by gonococci. Gonococcal strain F62ΔlgtD (expresses lacto-N-neotetraose (LNnT) from Hepl) was grown in media containing CMP-KDN7N3 (20 μg/mL) and binding of mAb 3F11 was measured by flow cytometry. mAb 3F11 binds only to […] LNnT; substitution of the terminal Gal of LNnT, for example with a NulO, will decrease mAb 3F11 binding. Approximately 5×10^7 bacteria were incubated with mAb 3F11 tissue culture supernatants for 15 minutes at 37° C. Binding of mAb 3F11 was disclosed with anti-mouse IgM FITC (Sigma; dilution of 1:100). […]

[7] = test system: purified human FH; test: Factor H (FH) binding to gonococci by flow cytometry; format: cell-based; conditions: F62 ΔlgtD grown with 20 μg/mL CMP-NulO, human FH 20 μg/mL
Protocol: FIG. 1: CMP-KDN serves as a substrate for gonococcal LOS and incorporation of KDN on gonococcal lacto-N-neotetraose LOS enhances factor H (FH) binding. A. Incorporation of KDN by gonococci. Gonococcal strain F62 ΔlgtD (expresses lacto-N-neotetraose (LNnT) from Hepl) was grown in media containing CMP-KDN (20 μg/mL) and binding of mAb 3F11 was measured by flow cytometry. mAb 3F11 binds only to […] LNnT; substitution of the terminal Gal of LNnT, for example with a NulO, will decrease mAb 3F11 binding. Approximately 5×10^7 bacteria were incubated with mAb 3F11 tissue culture supernatants for 15 minutes at 37° C. Binding of mAb 3F11 was disclosed with anti-mouse IgM FITC (Sigma; dilution of 1:100). Bacteria grown in CMP-Neu5Ac or in media alone were used as positive and negative controls for sialylation, respectively. A representative histogram is shown in the upper panel. […] B. Factor H (FH) binding to gonococci grown in CMP-KDN. Approximately 5×10^7 bacteria grown in media alone (no sialic acid), media plus CMP-Neu5Ac (20 μg/mL; positive control for FH binding) or in media containing CMP-KDN (20 μg/mL) were incubated with purified human FH (20 μg/mL) in HBSS** for 15 minutes at 37° C. and bound FH was detected with affinity isolated goat anti-human FH followed by anti-goat IgG FITC (Sigma; 1:100 dilution). A representative histogram is shown in the upper panel. […]

[8] = CMP-Neu5Ac (20 μg/mL) first, labelled CMP-NulO (20 μg/mL) added 15 minutes later
[9] = labelled CMP-NulO (20 μg/mL) first, CMP-Neu5Ac (2 μg/mL) added 15 minutes later
[10] = labelled CMP-NulO (20 μg/mL) first, CMP-Neu5Ac (20 μg/mL) added 15 minutes later

T1 sequence (P72074 whole entry): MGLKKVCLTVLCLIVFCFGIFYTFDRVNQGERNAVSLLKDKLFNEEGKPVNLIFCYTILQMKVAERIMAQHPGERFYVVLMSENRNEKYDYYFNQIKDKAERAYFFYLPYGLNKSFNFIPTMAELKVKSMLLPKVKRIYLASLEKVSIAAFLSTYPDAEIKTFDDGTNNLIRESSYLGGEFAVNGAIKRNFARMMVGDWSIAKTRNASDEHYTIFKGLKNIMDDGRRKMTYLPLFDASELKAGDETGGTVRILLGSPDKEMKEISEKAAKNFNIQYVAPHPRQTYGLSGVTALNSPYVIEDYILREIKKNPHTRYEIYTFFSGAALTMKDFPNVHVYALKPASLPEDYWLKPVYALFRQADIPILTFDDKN

SMILES	substrate for gonococcal LOS sialyltransferase (Lst) (earlier results) [1]	fH binding to bacteria (earlier results) [2]	% survival in 3.3% serum [3, 8] [%]	% survival in 10% serum [3, 8] [%]	countering of serum resistance mediated by CMP-Neu5Ac (competition, in words) ([3]; CMP-NulO competition, second CMP-NulO 15 minutes after the first, 3.3% and 10% serum)	% survival in 3.3% serum [3, 9] [%]	% survival in 10% serum [3, 9] [%]	% survival in 3.3% serum [3, 10] [%]	% survival in 10% serum [3, 10] [%]	serum resistance / serum-mediated killing (earlier results) [4]	attenuation of N. gonorrhoeae H041 infection [5]	binding of mAb 3F11 (use as substrate by gonococcal Lst) [6]	% survival in 10% serum ([3]; Table 1, CMP-NulO 20 μg/mL alone) [%]	% survival in 3.3% serum ([3]; Table 5, CMP-NulO 20 μg/mL) [%]	% survival in 10% serum ([3]; Table 5, CMP-NulO 20 μg/mL) [%]	fH binding to bacteria [7]
CC(=O)N[C@@H]([C@@H]1O[C@](OP(=O)(O)OC[C@H]2O[C@@H](n3ccc(N)nc3=O)[C@H](O)[C@@H]2O)(C(=O)O)C[C@H](O)[C@H]1NC(C)=O)[C@@H](C)O [CMP-Leg5Ac7Ac]	can serve as substrates for gonococcal LOS sialyltransferase (Lst)	not enhance fH binding above levels seen with an unsialylated F62 ΔlgtD control	9	5	blocked serum resistance mediated by CMP-Neu5Ac at both 3.3% and 10% serum concentrations irrespective of the order of addition	6	6	7	3	enhanced serum-mediated killing	significantly attenuated	–	–	–	–	–
CC(=O)N[C@H]1[C@H]([C@H](O)[C@H](O)CO)O[C@](OP(=O)(O)OC[C@H]2O[C@@H](n3ccc(N)nc3=O)[C@H](O)[C@@H]2O)(C(=O)O)C[C@@H]1O [CMP-Neu5Ac]	–	–	–	–	–	–	–	–	–	–	–	decreased binding of mAb 3F11 similarly	115	133.03	129.02	Maximal fH binding

From patent US20210401863A1, “TREATMENT AND PREVENTION OF NEISSERIA GONORRHOEAE INFECTION USING CMP-ACTIVATED NONULOSONATE ANALOG COMPOUNDS” (NATIONAL RESEARCH COUNCIL OF CANADA, priority 2015, published 2021)
